Data published in BindingDB's records for doi:10.1016/j.bmcl.2011.10.035 (Sepuluh Nopember Institute of Technology, 2011).

molecular target: Aldo-keto reductase family 1 member B1 (Homo sapiens, UniProt P15121); assay: Inhibition of recombinant human aldose reductase using dl-glyceraldehyde as substrate after 10 mins by spectrophotometry

`CC(=CC(=O)CC(C)C(=O)O)[C@H]1CC(=O)[C@@]2(C)C3=C(C(=O)C[C@]12C)[C@@]1(C)CCC(=O)C(C)(C)[C@@H]1C[C@@H]3O` (stereo partly drawn) and `CC(CC(=O)C[C@@H](C)[C@H]1CC(=O)[C@@]2(C)C3C(C(=O)C(=O)[C@]12C)[C@@]1(C)CC[C@H](O)C(C)(C)[C@@H]1C[C@@H]3O)C(=O)O` (stereo partly drawn) cannot be ordered by IC50: greater than 195 µM for the first, greater than 188 µM for the second.

With `CC(CC(=O)C[C@@H](C)[C@H]1CC(=O)[C@@]2(C)C3C(=O)C[C@H]4C(C)(C)[C@@H](O)CC[C@]4(C)C3C(=O)C(=O)[C@]12C)C(=O)O` (stereo partly drawn) the IC50 was greater than 193 µM.
